This assay addresses jack bean urease (Canavalia ensiformis, UniProt P07374). Kind of assay: biochemical. Conditions: for urease inhibitory activity in words: in vitro assay, authors' verbal grading. As for the experimental part: Reaction mixture comprising of 25μL of enzyme (jack bean urease) (1 unit/well) solution and 55 μL of phosphate buffers (4 mM) containing 100 mM urea were incubated with 5 μL of test compounds dissolved in methanol (0.5 mM concentration) at 30 °C for 15 min in 96-well plates. Urease activity was determined by measuring ammonia production using the indophenol method as described by Weather burn. Briefly, 45 μl each phenol reagent (1 % w/v phenol and 0.005 % w/v sodium nitroprussside) and 70 μL of alkali reagent(0.5 % w/v NaOH and 0.1 % active chloride NaOCl) were added to each well. The increasing absorbance at 630 nm was measured afther 50 min, using a microplate reader (Molecular Device, USA). All reactions were performed in triplicate in a final volume of 200 μL. The results (change in absorbance per min) were processed by using softMax Pro software (molecular Device, USA). The entire assays were performed at pH 6.8. Percentage inhibitions were calculated from the formula 100 − (ODtestwell/ODcontrol) × 100. Thiourea was used as the standard inhibitor of urease.

“Also recorded” adds a separate entry of the source. Where a name gives a salt, the structure may show the parent alone.

A word on the IC50: it is the midpoint of a concentration-inhibition curve. Low readings indicate inhibition by little substance, high ones a need for much substance.

Sequence of jack bean urease (P07374 whole entry, looked up): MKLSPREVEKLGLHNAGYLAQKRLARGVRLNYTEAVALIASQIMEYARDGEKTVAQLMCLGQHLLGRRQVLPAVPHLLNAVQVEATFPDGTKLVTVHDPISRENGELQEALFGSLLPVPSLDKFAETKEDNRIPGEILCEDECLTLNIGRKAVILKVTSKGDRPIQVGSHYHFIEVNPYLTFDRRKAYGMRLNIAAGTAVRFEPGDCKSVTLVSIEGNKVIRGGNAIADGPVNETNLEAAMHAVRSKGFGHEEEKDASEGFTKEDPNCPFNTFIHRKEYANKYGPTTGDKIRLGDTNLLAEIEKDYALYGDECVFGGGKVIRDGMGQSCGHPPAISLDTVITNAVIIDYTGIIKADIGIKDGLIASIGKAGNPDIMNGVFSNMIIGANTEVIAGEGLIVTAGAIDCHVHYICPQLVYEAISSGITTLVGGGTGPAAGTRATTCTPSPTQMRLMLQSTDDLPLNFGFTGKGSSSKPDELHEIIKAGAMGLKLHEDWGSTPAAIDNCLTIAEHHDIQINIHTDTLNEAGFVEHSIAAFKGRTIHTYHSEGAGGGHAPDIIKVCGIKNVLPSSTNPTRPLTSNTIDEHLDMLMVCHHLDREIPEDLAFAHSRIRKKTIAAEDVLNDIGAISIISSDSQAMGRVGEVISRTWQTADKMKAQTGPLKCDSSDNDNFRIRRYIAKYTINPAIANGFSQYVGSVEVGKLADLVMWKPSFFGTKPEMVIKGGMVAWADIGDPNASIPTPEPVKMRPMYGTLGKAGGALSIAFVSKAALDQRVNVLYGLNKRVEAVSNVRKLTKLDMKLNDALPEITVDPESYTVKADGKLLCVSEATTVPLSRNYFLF

`CC1(C)CC(=O)C(C(C2=C(O)CC(C)(C)CC2=O)c2ccc(Cl)cc2)=C(O)C1` [Compound 5b, 2-((4-Chlorophenyl)(2-hydroxy-4,4-dimethyl-6-oxocyclohex-1-en-1-yl)methyl)-5,5-dimethyl-3-oxocyclohex-1-enolate diethylaminium salt] came in with an IC50 of 29.7 ± 0.67 µM.

Compound `COc1ccc(C(C2=C(O)CC(C)(C)CC2=O)C2=C(O)CC(C)(C)CC2=O)cc1` [Compound 5e, 2-((2-Hydroxy-4,4-dimethyl-6-oxocyclohex-1-en-1-yl)(4-methoxyphenyl)methyl)-5,5-dimethyl-3-oxocyclohex-1-enolate diethylaminium salt] displayed an IC50 of 39.8 ± 0.75 µM.

For the compound `CC1(C)CC(=O)C(C(C2=C(O)CC(C)(C)CC2=O)c2ccc([N+](=O)[O-])cc2)=C(O)C1` [Compound 5f, 2-((2-Hydroxy-4,4-dimethyl-6-oxocyclohex-1-en-1-yl)(4-nitrophenyl)methyl)-5,5-dimethyl-3-oxocyclohex-1-enolate diethylaminium salt], the IC50 came to 106 ± 1.49 µM and the “urease inhibitory activity in words” value is “inactivity”.

In the case of `CC1(C)CC(=O)C(C(C2=C(O)CC(C)(C)CC2=O)c2c(Cl)cccc2Cl)=C(O)C1` [Compound 5g, 2-((2,6-Dichlorophenyl)(2-hydroxy-4,4-dimethyl-6-oxocyclohex-1-en-1-yl)methyl)-5,5-dimethyl-3-oxocyclohex-1-enolate diethylaminium salt], the IC50 amounted to 170.7 ± 1.55 µM and the “urease inhibitory activity in words” value is “least active; also recorded: inactivity”.

With `CC1(C)CC(=O)C(C(C2=C(O)CC(C)(C)CC2=O)c2cccc([N+](=O)[O-])c2)=C(O)C1` [Compound 5h, 2-((2-Hydroxy-4,4-dimethyl-6-oxocyclohex-1-en-1-yl)(3-nitrophenyl)methyl)-5,5-dimethyl-3-oxocyclohex-1-enolate diethylaminium salt], the IC50 worked out at 49 ± 0.55 µM and the “urease inhibitory activity in words” value is listed as “good urease inhibitory activity”.

Take `CC1(C)CC(=O)C(C(C2=C(O)CC(C)(C)CC2=O)c2ccccc2[N+](=O)[O-])=C(O)C1` [Compound 5i, 2-((2-Hydroxy-4,4-dimethyl-6-oxocyclohex-1-en-1-yl)(2-nitrophenyl)methyl)-5,5-dimethyl-3-oxocyclohex-1-enolate diethylaminium salt]: it took 210.1 ± 0.29 µM to reach half-maximal inhibition (IC50) and the “urease inhibitory activity in words” value is “inactivity”.

The compound `CC1(C)CC(=O)C(C(C2=C(O)CC(C)(C)CC2=O)c2ccc(C=O)cc2)=C(O)C1` [Compound 5j, 2-((4-Formylphenyl)(2-hydroxy-4,4-dimethyl-6-oxocyclohex-1-en-1-yl)methyl)-5,5-dimethyl-3-oxocyclohex-1-enolate diethylaminium salt] showed an IC50 of 72.6 ± 0.59 µM.

On to `CC1(C)CC(=O)C(C(C2=C(O)CC(C)(C)CC2=O)c2ccc(O)cc2)=C(O)C1` [Compound 5k, 2-((2-Hydroxy-4,4-dimethyl-6-oxocyclohex-1-en-1-yl)(4-hydroxyphenyl)methyl)-5,5-dimethyl-3-oxocyclohex-1-enolate diethylaminium salt], for which the IC50 is 43.8 ± 0.33 µM and the “urease inhibitory activity in words” value is “good urease inhibitory activity”.

`Cn1c(O)c(C(c2ccc(C=O)cc2)c2c(O)[nH]c(=O)[nH]c2=O)c(=O)n(C)c1=O` (stereo not drawn) [Compound 5l, 4-((6-Hydroxy-1,3-dimethyl-2,4-dioxo-1,2,3,4-tetrahydropyrimidin-5-yl)(6-hydroxy-2,4-dioxo-1,2,3,4-tetrahydropyrimidin-5-yl)methyl)benzaldehyde diethylaminium salt]: the 50% inhibitory concentration (IC50) was found to be 17.2 ± 0.44 µM and the “urease inhibitory activity in words” value is recorded as “most active”.

As to `CC1(C)CC(=O)C(C(c2ccc(Cl)cc2)c2c(O)[nH]c(=O)[nH]c2=O)=C(O)C1` (stereo not drawn) [Compound 5m, 5-((4-Chlorophenyl)(2-hydroxy-4,4-dimethyl-6-oxocyclohex-1-en-1-yl)methyl)-2,6-dioxo-1,2,3,6-tetrahydropyrimidin-4-olate diethylaminium salt], the midpoint of inhibition, the IC50, lay at 65.9 ± 0.61 µM.

As to `CC1(C)CC(=O)C(C(c2ccccc2)c2c(O)[nH]c(=O)[nH]c2=O)=C(O)C1` (stereo not drawn) [Compound 5n, 5-((2-Hydroxy-4,4-dimethyl-6-oxocyclohex-1-en-1-yl)(phenyl)methyl)-2,6-dioxo-1,2,3,6-tetrahydropyrimidin-4-olate diethylaminium salt], it took 23.7 ± 0.57 µM to reach half-maximal inhibition (IC50) and the “urease inhibitory activity in words” value was “active”.

Compound `CC1(C)CC(=O)C(C(c2ccc(Br)cc2)c2c(O)[nH]c(=O)[nH]c2=O)=C(O)C1` (stereo not drawn) [Compound 5o, 5-((4-Bromophenyl)(2-hydroxy-4,4-dimethyl-6-oxocyclohex-1-en-1-yl)methyl)-2,6-dioxo-1,2,3,6-tetrahydropyrimidin-4-olate diethylaminium salt] showed an IC50 of 34.6 ± 0.79 µM.

Turning to `Cc1ccc(C(C2=C(O)CC(C)(C)CC2=O)c2c(O)[nH]c(=O)[nH]c2=O)cc1` (stereo not drawn) [Compound 5p, 5-((2-Hydroxy-4,4-dimethyl-6-oxocyclohex-1-en-1-yl)(p-tolyl)methyl)-2,6-dioxo-1,2,3,6-tetrahydropyrimidin-4-olate diethylaminium salt], inhibition was half-maximal at 27.4 ± 0.54 µM (IC50).

Consider `CC1(C)CC(=O)C(C(c2ccc(C=O)cc2)c2c(O)[nH]c(=O)[nH]c2=O)=C(O)C1` (stereo not drawn) [Compound 5q, 2-((4-Formylphenyl)(6-hydroxy-2,4-dioxo-1,2,3,4-tetrahydropyrimidin-5-yl)methyl)-5,5-dimethyl-3-oxocyclohex-1-enolate diethylaminium salt], for which the 50% inhibitory concentration (IC50) amounted to 41.6 ± 0.41 µM.

`CC1(C)CC(=O)C(C(c2ccc3ccccc3c2)c2c(O)[nH]c(=O)[nH]c2=O)=C(O)C1` (stereo not drawn) [Compound 5r, 5-((2-Hydroxy-4,4-dimethyl-6-oxocyclohex-1-en-1-yl)(naphthalen-2-yl)methyl)-2,6-dioxo-1,2,3,6-tetrahydropyrimidin-4-olate diethylaminium salt] gave an IC50 of 82.8 ± 0.72 µM.

`CC1(C)CC(=O)C(C(C2=C(O)CC(C)(C)CC2=O)c2ccc3ccccc3c2)=C(O)C1` [Compound 5s, 2-((2-Hydroxy-4,4-dimethyl-6-oxocyclohex-1-en-1-yl)(naphthalen-2-yl)methyl)-5,5-dimethyl-3-oxocyclohex-1-enolate diethylaminium salt]: the IC50 worked out at 123.2 ± 0.37 µM and the “urease inhibitory activity in words” value was “inactivity”.

The values are drawn from publication PMC4648982 (Chemistry Central Journal, 2015).
